The text below walks through data of patent US20260083851A1 (AVILAR THERAPEUTICS, INC., priority 2022, published 2026).

Structures are written as SMILES. Like-named read-outs stand apart in the source and are kept apart here.

In test [1] the target is T1, ASGPR (Homo sapiens, UniProt P07306).
T1 construct: biotin (biotinylated)
T1 sequence (P07306 1-291): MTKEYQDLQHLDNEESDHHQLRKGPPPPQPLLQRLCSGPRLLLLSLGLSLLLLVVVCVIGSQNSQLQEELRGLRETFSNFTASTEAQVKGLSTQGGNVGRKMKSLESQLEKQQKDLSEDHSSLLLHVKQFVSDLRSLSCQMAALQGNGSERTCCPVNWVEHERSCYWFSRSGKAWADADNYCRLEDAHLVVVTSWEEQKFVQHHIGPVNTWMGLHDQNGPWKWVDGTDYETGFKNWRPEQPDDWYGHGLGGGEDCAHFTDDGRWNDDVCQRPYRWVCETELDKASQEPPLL
As to the kind of experiment: ASGPR SPR binding. A general note: SPR reads the build-up and loss of mass on a sensor chip optically.

The target in test [2] is T2, ASGPR receptor on HepG2 cells (ternary complex with AF488-labeled antibody) (Homo sapiens, UniProt P07306).
T2 construct: host or cells: HepG2
T2 sequence (P07306 1-291): T1 sequence (P07306 1-291)
T2 sequence (P07307 1-311 partner): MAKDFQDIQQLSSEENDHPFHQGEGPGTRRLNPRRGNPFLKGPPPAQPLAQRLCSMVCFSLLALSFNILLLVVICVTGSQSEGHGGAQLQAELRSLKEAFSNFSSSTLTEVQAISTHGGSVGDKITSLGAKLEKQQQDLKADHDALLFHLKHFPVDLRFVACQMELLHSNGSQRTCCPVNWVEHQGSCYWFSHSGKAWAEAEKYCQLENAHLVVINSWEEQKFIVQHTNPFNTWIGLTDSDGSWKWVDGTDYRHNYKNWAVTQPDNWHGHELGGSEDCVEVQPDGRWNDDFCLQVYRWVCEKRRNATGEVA
In words: Ternary complex formation assay (flow cytometry, cell-associated AF488 fluorescence). The format is cell-based. The following applies: 100 nM AF488-labeled antibody, 1 hour at 4° C. (In general: Flow cytometry measures light scatter and fluorescence of single cells or particles in a stream.)

The test system of test [3] is HepG2 cells. As to the kind of experiment: Cellular uptake assay (high-content imaging). It counts as cell-based, human. To be noted: 100 nM AF488-labeled antibody, 6 hours at 37° C. An excerpt:
The cellular uptake assay is designed to measure compound-mediated cellular uptake of fluorescently labeled antibody following ternary complex formation with the ASGPR receptor and endocytosis of the entire complex into cells. The optimal concentration of compound will result in the maximum number of cells with intracellular antibody and is represented as the peak ratio of antibody-positive cells over the total number of cells. As with the ternary complex formation assay, too much or too little compound will result in suboptimal complex formation and fewer cells will have measurable intracellular fluorescence.
Human IgG (Sigma-Aldrich, 14506) was covalently labeled with Alexa Fluor 488 using the Alexa Fluor™ 488 Protein Labeling Kit (Thermo Fisher, A10235) following the manufacturer's instructions. HepG2 cells were plated in DMEM supplemented with 10% FBS at 5,000 cells per well in a 96-well microtiter plate and incubated for approximately 18 hours at 37° C./5% CO2. For studies using human IgG, 100 nM AF488-labeled human IgG antibodies and serial dilutions of IgG-based degrader (0.1% DMSO final concentration) were added to the cells and the mixture was incubated at 37° C. for 6 hours. For studies using DNP, 100 nM AF488-labeled DNP antibodies and serial dilutions of DNP-based degrader (0.1% DMSO final concentration) were added to the cells and the mixture was incubated at 37° C. for 6 hours. HepG2 cells were fixed in 100% methanol at −20° C. for 20 min, washed 3× with PBS, then stained with DAPI (Thermo, Cat #H3570). HepG2 cells were imaged for DAPI and Alexa Fluor 488 using the Operetta CLS, high-content analysis system (PerkinElmer). Data is presented as the ratio of the number of cells positive for hIgG or DNP (AF-488 fluorescence) over the total cell number (measured by DAPI).

The target in test [4] is IgG. In words: IgG SPR binding.
[5] abbreviates: Table 3, read-out: ASGPR SPR Binding KD.
Setting [6] is: Homo sapiens, Table 3, class symbols, read-out: Uptake Assay (EC50).
The mark [7] stands for this setting: Table 3, read-out: IgG SPR Binding KD.
Where [8] appears, read: second table, read-out: ASGPR KD.
[9] abbreviates: the 25th table, class symbols, read-out: TCF EC50.
Setting [10] is: the 25th table, class symbols, read-out: Uptake EC50.
Setting [11] is: Table 3, class symbols, read-out: Ternary Complex EC50.

Regarding `CC(C)C[C@@H]1NC(=O)[C@H](Cc2cnc[nH]2)NC(=O)[C@H](Cc2c[nH]c3ccccc23)NC(=O)[C@H](C)NC(=O)[C@@H]2CSSC[C@H](NC(=O)[C@H](Cc3c[nH]c4ccccc34)NC(=O)[C@H](C(C)C)NC(=O)[C@H](CC(C)C)NC(=O)[C@H](CCC(=O)O)NC(=O)CNC1=O)C(=O)N[C@@H]([C@@H](C)O)C(=O)N1CCC[C@@H]1C(=O)N1C[C@@H](NC(=O)COCCOCC(=O)NC[C@H]3OC[C@H](Nc4nccc(C(F)(F)F)n4)[C@@H](O)[C@H]3O)C[C@H]1C(=O)N[C@@H](CC(=O)O)C(=O)N2` [compound 34], the values for the Kd in test [1] (setting [5]) and in test [4] (setting [7]) were greater than 1000 nM and less than 100 nM, respectively. The half-maximal effective concentration (EC50) in test [2] (Table 3, numeric bounds, read-out: Ternary Complex EC50) was greater than 964 nM; in test [3] (setting [6]), greater than 1000 nM.

As to `CC(C)C[C@@H]1NC(=O)[C@H](Cc2cnc[nH]2)NC(=O)[C@H](Cc2c[nH]c3ccccc23)NC(=O)[C@H](C)NC(=O)[C@@H](NC(=O)[C@H](CC(=O)O)NC(=O)CCOCCOCCOCCOCCNC(=O)CCCc2cn(CCCCCC(=O)NC(COCCC(=O)NCCOCCOCCOCCO[C@@H]3O[C@H](CO)[C@H](O)[C@H](O)[C@H]3Nc3cncc(C(F)(F)F)n3)COCCC(=O)NCCOCCOCCOCCO[C@@H]3O[C@H](CO)[C@H](O)[C@H](O)[C@H]3Nc3cncc(C(F)(F)F)n3)nn2)CSSC[C@@H](C(=O)N[C@H](C(N)=O)[C@@H](C)O)NC(=O)[C@H](Cc2c[nH]c3ccccc23)NC(=O)[C@H](C(C)C)NC(=O)[C@H](CC(C)C)NC(=O)[C@H](CCC(=O)O)NC(=O)CNC1=O` [compound 93], the Kd in test [1] (setting [8]) was less than 100 nM; in test [4] (second table, read-out: IgG KD) it was less than 100 nM. In addition, the concentration giving a half-maximal response (EC50) in test [2] (setting [9]) and in test [3] (setting [10]) was less than 100 nM in each case.

On to `CC(C)C[C@@H]1NC(=O)[C@H](Cc2cnc[nH]2)NC(=O)[C@H](Cc2c[nH]c3ccccc23)NC(=O)[C@H](C)NC(=O)[C@@H](NC(=O)[C@H](CC(=O)O)NC(=O)CCOCCOCCOCCOCCNC(=O)CCCc2cn(CCCCCC(=O)NC(CCCCC(=O)NCCOCCOCCOCCOC[C@H]3OC[C@H](Nc4nccc(C(F)(F)F)n4)[C@@H](O)[C@H]3O)COCCC(=O)NCCOCCOCCOCCOC[C@H]3OC[C@H](Nc4nccc(C(F)(F)F)n4)[C@@H](O)[C@H]3O)nn2)CSSC[C@@H](C(=O)N[C@H](C(N)=O)[C@@H](C)O)NC(=O)[C@H](Cc2c[nH]c3ccccc23)NC(=O)[C@H](C(C)C)NC(=O)[C@H](CC(C)C)NC(=O)[C@H](CCC(=O)O)NC(=O)CNC1=O` (stereo partly shown) [compound 90], for which the Kd is less than 100 nM in test [1] (setting [8]) and less than 100 nM in test [4] (second table, read-out: IgG KD). Also, the EC50 in test [2] (setting [9]) and in test [3] (setting [10]) was less than 100 nM each time.

Turning to `CC(C)C[C@@H]1NC(=O)[C@H](Cc2cnc[nH]2)NC(=O)[C@H](Cc2c[nH]c3ccccc23)NC(=O)[C@H](C)NC(=O)[C@@H]2CSSC[C@H](NC(=O)[C@H](Cc3c[nH]c4ccccc34)NC(=O)[C@H](C(C)C)NC(=O)[C@H](CC(C)C)NC(=O)[C@H](CCC(=O)O)NC(=O)CNC1=O)C(=O)N[C@@H]([C@@H](C)O)C(=O)N1CCC[C@@H]1C(=O)N1C[C@@H](NC(=O)c3ccc(N4CCC(CN5CCN(C[C@H]6OC[C@H](Nc7nc(C(F)(F)F)ccc7F)[C@@H](O)[C@H]6O)CC5)CC4)cc3)C[C@H]1C(=O)N[C@@H](CC(=O)O)C(=O)N2` [compound 27], the dissociation constant Kd in test [1] (setting [5]) and in test [4] (setting [7]) was less than 100 nM each time. Further, the concentration for a half-maximal effect (EC50) in test [2] (setting [11]) and in test [3] (setting [6]) was less than 100 nM throughout.

Take `CC(C)C[C@@H]1NC(=O)[C@H](Cc2cnc[nH]2)NC(=O)[C@H](Cc2c[nH]c3ccccc23)NC(=O)[C@H](C)NC(=O)[C@@H]2CSSC[C@H](NC(=O)[C@H](Cc3c[nH]c4ccccc34)NC(=O)[C@H](C(C)C)NC(=O)[C@H](CC(C)C)NC(=O)[C@H](CCC(=O)O)NC(=O)CNC1=O)C(=O)N[C@@H]([C@@H](C)O)C(=O)N1CCC[C@@H]1C(=O)N1C[C@H](NC(=O)COCCOCC(=O)NC[C@H]3OC[C@H](Nc4cccc(C(F)(F)F)n4)[C@@H](O)[C@H]3O)C[C@H]1C(=O)N[C@@H](CC(=O)O)C(=O)N2` [compound 28]: the Kd in test [1] (setting [5]) and in test [4] (setting [7]) was less than 100 nM each time. The EC50 in test [2] (setting [11]) was less than 100 nM; in test [3] (Homo sapiens, Table 3, numeric bounds, read-out: Uptake Assay (EC50)), greater than 1100 nM.

Turning to `CC(C)C[C@@H]1NC(=O)[C@H](Cc2cnc[nH]2)NC(=O)[C@H](Cc2c[nH]c3ccccc23)NC(=O)[C@H](C)NC(=O)[C@@H]2CSSC[C@H](NC(=O)[C@H](Cc3c[nH]c4ccccc34)NC(=O)[C@H](C(C)C)NC(=O)[C@H](CC(C)C)NC(=O)[C@H](CCC(=O)O)NC(=O)CNC1=O)C(=O)N[C@@H]([C@@H](C)O)C(=O)N1CCC[C@@H]1C(=O)N1C[C@@H](NC(=O)c3ccc(N4CCC(CN5CCN(C[C@H]6OC[C@H](Nc7ccnc(C(F)(F)F)n7)[C@@H](O)[C@H]6O)CC5)CC4)cc3)C[C@H]1C(=O)N[C@@H](CC(=O)O)C(=O)N2` [compound 31], the Kd in test [1] (setting [5]) and in test [4] (setting [7]) was less than 100 nM throughout. Besides, the EC50 in test [2] (setting [11]) and in test [3] (setting [6]) was less than 100 nM throughout.

Consider `CC(=O)N[C@H]1[C@H](OCCCCOCCOCCOCCNC(=O)CCOCC(COCCC(=O)NCCOCCOCCOCCO[C@@H]2O[C@H](CO)[C@H](O)[C@H](O)[C@H]2NC(C)=O)NC(=O)CCCCCn2cc(CCCC(=O)NCCOCCOCCOCCOCCC(=O)N[C@H]3C[C@H]4C(=O)N[C@@H](CC(=O)O)C(=O)N[C@H]5CSSC[C@H](NC(=O)[C@H](Cc6c[nH]c7ccccc67)NC(=O)[C@H](C(C)C)NC(=O)[C@H](CC(C)C)NC(=O)[C@H](CCC(=O)O)NC(=O)CNC(=O)[C@H](CC(C)C)NC(=O)[C@H](Cc6cnc[nH]6)NC(=O)[C@H](Cc6c[nH]c7ccccc67)NC(=O)[C@H](C)NC5=O)C(=O)N[C@@H]([C@@H](C)O)C(=O)N5CCC[C@@H]5C(=O)N4C3)nn2)O[C@H](CO)[C@H](O)[C@@H]1O` (stereo partly shown) [compound 86], for which the dissociation constant (Kd) is greater than 1000 nM in test [1] (setting [8]) and less than 100 nM in test [4] (second table, read-out: IgG KD). Besides, the half-maximal effective concentration (EC50) in test [2] (setting [9]) and in test [3] (setting [10]) was greater than 1000 nM in each case.

In the case of `CC(C)C[C@@H]1NC(=O)[C@H](Cc2cnc[nH]2)NC(=O)[C@H](Cc2c[nH]c3ccccc23)NC(=O)[C@H](C)NC(=O)[C@@H](NC(=O)[C@H](CC(=O)O)NC(=O)CCOCCCCOCCCCOCCCCOCCNC(=O)CCCc2cn(CCCCCC(=O)NC(COCCC(=O)NCCOCCOCCOCCOC[C@H]3OC[C@H](Nc4nccc(C(F)(F)F)n4)C[C@H]3O)COCCC(=O)NCCOCCOCCOCCOC[C@H]3OC[C@H](Nc4nccc(C(F)(F)F)n4)C[C@H]3O)nn2)CSSC[C@@H](C(=O)N[C@H](C(N)=O)[C@@H](C)O)NC(=O)[C@H](Cc2c[nH]c3ccccc23)NC(=O)[C@H](C(C)C)NC(=O)[C@H](CC(C)C)NC(=O)[C@H](CCC(=O)O)NC(=O)CNC1=O` [compound 92], the Kd in test [1] (setting [8]) is greater than 1000 nM. Also, the EC50 in test [2] (setting [9]) and in test [3] (setting [10]) was greater than 1000 nM in each case.

As to `CC(C)C[C@@H]1NC(=O)[C@H](Cc2cnc[nH]2)NC(=O)[C@H](Cc2c[nH]c3ccccc23)NC(=O)[C@H](C)NC(=O)[C@@H]2CSSC[C@H](NC(=O)[C@H](Cc3c[nH]c4ccccc34)NC(=O)[C@H](C(C)C)NC(=O)[C@H](CC(C)C)NC(=O)[C@H](CCC(=O)O)NC(=O)CNC1=O)C(=O)N[C@@H]([C@@H](C)O)C(=O)N1CCC[C@@H]1C(=O)N1C[C@@H](NC(=O)COCCOCC(=O)NC[C@H]3OC[C@H](Nc4cccc(C(F)(F)F)n4)[C@@H](O)[C@H]3O)C[C@H]1C(=O)N[C@@H](CC(=O)O)C(=O)N2` [compound 25], the dissociation constant Kd in test [1] (setting [5]) fell in the range of 500 to 1000 nM. Moreover, the concentration giving a half-maximal response (EC50) in test [2] (setting [11]) and in test [3] (setting [6]) was less than 100 nM each time.

The Kd is a measure of binding affinity in units of concentration. As a reminder, the EC50 is the midpoint of the concentration-response curve.
